Experimental data from PMC5218480 (PLoS ONE, 2017).

System: MV-4-11 cells
Experiment: Gene expression microarray analysis (Affymetrix PrimeView) and GSEA
Format: cell-based, human
Set-up: RFU PODN (11730768_x_at) / Fold change /veh PODN (11730768_x_at) / RFU LINC00158 (11744669_a_at) / Fold change /veh LINC00158 (11744669_a_at) / RFU DUSP10 (11751237_a_at) / Fold change /veh DUSP10 (11751237_a_at) / RFU ID3 (11757404_x_at) / Fold change /veh ID3 (11757404_x_at) / RFU PLEKHG5 (11737974_s_at) / Fold change /veh PLEKHG5 (11737974_s_at) / RFU LRRC4B (11730491_at) / Fold change /veh LRRC4B (11730491_at) / RFU GIMAP4 (11747438_a_at) / Fold change /veh GIMAP4 (11747438_a_at) / RFU KRT8 (11758183_x_at) / Fold change /veh KRT8 (11758183_x_at) / RFU CNN1 (11734310_a_at) / Fold change /veh CNN1 (11734310_a_at) / RFU VPS37D (11726825_at) / Fold change /veh VPS37D (11726825_at) / RFU C10orf10 (11716522_x_at) / Fold change /veh C10orf10 (11716522_x_at) / RFU KIR2DL2 /// KIR2DL4 /// KIR2DL5A /// KIR2DL5B /// KIR2DS1 /// KIR2DS2 /// KIR2DS3 /// KIR2DS4 /// KIR3DL3 /// KIR3DL3 /// KIR3DS1 (11738374_at) / Fold change /veh KIR2DL2 /// KIR2DL4 /// KIR2DL5A /// KIR2DL5B /// KIR2DS1 /// KIR2DS2 /// KIR2DS3 /// KIR2DS4 /// KIR3DL3 /// KIR3DL3 /// KIR3DS1 (11738374_at) / RFU C1QL1 (11718748_at) / Fold change /veh C1QL1 (11718748_at) / RFU TMPRSS4 (11747572_a_at) / Fold change /veh TMPRSS4 (11747572_a_at) / RFU HAMP (11756126_x_at) / Fold change /veh HAMP (11756126_x_at) / RFU RNFT2 (11725882_a_at) / Fold change /veh RNFT2 (11725882_a_at) / RFU NR4A2 (11747474_a_at) / Fold change /veh NR4A2 (11747474_a_at) / RFU ABCC12 (11746883_a_at) / Fold change /veh ABCC12 (11746883_a_at) / RFU TMEM136 (11760407_x_at) / Fold change /veh TMEM136 (11760407_x_at) / RFU CLDN22 /// WWC2 (11732394_at) / Fold change /veh CLDN22 /// WWC2 (11732394_at) / RFU HLA-DPB1 (11760878_x_at) / Fold change /veh HLA-DPB1 (11760878_x_at) / RFU SPINT1 (11716480_a_at) / Fold change /veh SPINT1 (11716480_a_at) / RFU GAP43 (11754022_s_at) / Fold change /veh GAP43 (11754022_s_at) / RFU A4GNT (11735810_at) / Fold change /veh A4GNT (11735810_at) / RFU PRB3 (11715151_x_at) / Fold change /veh PRB3 (11715151_x_at) / RFU TUBB4B (11761932_at) / Fold change /veh TUBB4B (11761932_at) / RFU CAPN14 (11732068_a_at) / Fold change /veh CAPN14 (11732068_a_at) / RFU TMCC2 (11721928_a_at) / Fold change /veh TMCC2 (11721928_a_at) / RFU IRGQ (11745062_a_at) / Fold change /veh IRGQ (11745062_a_at) / RFU FAM174B (11720279_a_at) / Fold change /veh FAM174B (11720279_a_at) / RFU TMPRSS4 (11748680_a_at) / Fold change /veh TMPRSS4 (11748680_a_at) / RFU FAM212B (11763350_a_at) / Fold change /veh FAM212B (11763350_a_at) / RFU PLEKHG5 (11743358_a_at) / Fold change /veh PLEKHG5 (11743358_a_at) / RFU ZSCAN30 (11745921_a_at) / Fold change /veh ZSCAN30 (11745921_a_at) / RFU CMKLR1 (11741424_a_at) / Fold change /veh CMKLR1 (11741424_a_at) / RFU LOC101060620 /// MAPK8IP1 (11723275_at) / Fold change /veh LOC101060620 /// MAPK8IP1 (11723275_at) / RFU SPTSSB (11747773_x_at) / Fold change /veh SPTSSB (11747773_x_at) / RFU PRSS12 (11739890_at) / Fold change /veh PRSS12 (11739890_at) / RFU BIN1 (11741810_x_at) / Fold change /veh BIN1 (11741810_x_at) / RFU WNT11 (11732464_a_at) / Fold change /veh WNT11 (11732464_a_at) / RFU C10orf10 (11716521_a_at) / Fold change /veh C10orf10 (11716521_a_at) / RFU C5orf56 (11738089_at) / Fold change /veh C5orf56 (11738089_at) / RFU CYB561 (11721691_x_at) / Fold change /veh CYB561 (11721691_x_at) / RFU ANKRD19P (11752326_a_at) / Fold change /veh ANKRD19P (11752326_a_at) / RFU OR2T12 /// OR2T33 /// OR2T8 (11738714_s_at) / Fold change /veh OR2T12 /// OR2T33 /// OR2T8 (11738714_s_at) / RFU VCAN (11748164_a_at) / Fold change /veh VCAN (11748164_a_at) / RFU JSRP1 (11732532_at) / Fold change /veh JSRP1 (11732532_at) / RFU KRTAP10-11 (11738290_x_at) / Fold change /veh KRTAP10-11 (11738290_x_at) / RFU MYO3A (11730013_a_at) / Fold change /veh MYO3A (11730013_a_at) / RFU EBF3 (11725865_a_at) / Fold change /veh EBF3 (11725865_a_at) / RFU CAMK2N1 (11719241_x_at) / Fold change /veh CAMK2N1 (11719241_x_at) / RFU C5orf56 (11738088_a_at) / Fold change /veh C5orf56 (11738088_a_at) / RFU OLFML3 (11715873_a_at) / Fold change /veh OLFML3 (11715873_a_at) / RFU LOC100653217 /// NTM (11731650_a_at) / Fold change /veh LOC100653217 /// NTM (11731650_a_at) / RFU MAPK11 (11762145_a_at) / Fold change /veh MAPK11 (11762145_a_at) / RFU FIZ1 (11724087_x_at) / Fold change /veh FIZ1 (11724087_x_at) / RFU OASL (11726364_x_at) / Fold change /veh OASL (11726364_x_at) / RFU SOX15 (11748057_x_at) / Fold change /veh SOX15 (11748057_x_at) / RFU CD79A (11719716_a_at) / Fold change /veh CD79A (11719716_a_at) / RFU HIST1H1D (11736915_at) / Fold change /veh HIST1H1D (11736915_at) / RFU CASKIN2 (11723855_a_at) / Fold change /veh CASKIN2 (11723855_a_at) / RFU LOC730098 (11760151_x_at) / Fold change /veh LOC730098 (11760151_x_at) / RFU OR4N2 (11742367_at) / Fold change /veh OR4N2 (11742367_at) / RFU PRRT2 (11749266_a_at) / Fold change /veh PRRT2 (11749266_a_at) / RFU SNX32 (11753110_a_at) / Fold change /veh SNX32 (11753110_a_at) / RFU CDHR5 (11726645_a_at) / Fold change /veh CDHR5 (11726645_a_at) / RFU RCAN1 (11760418_a_at) / Fold change /veh RCAN1 (11760418_a_at) / RFU FAM167A (11723789_a_at) / Fold change /veh FAM167A (11723789_a_at) / RFU FAM26E (11764081_at) / Fold change /veh FAM26E (11764081_at) / RFU ISYNA1 (11749810_s_at) / Fold change /veh ISYNA1 (11749810_s_at) / RFU ACY1 (11761880_at) / Fold change /veh ACY1 (11761880_at) / RFU 11764098_at / Fold change /veh 11764098_at / RFU SAMD14 (11745864_x_at) / Fold change /veh SAMD14 (11745864_x_at) / RFU NPB (11741838_a_at) / Fold change /veh NPB (11741838_a_at) / RFU TMPRSS6 (11731388_a_at) / Fold change /veh TMPRSS6 (11731388_a_at) / RFU KRTAP10-2 (11738614_at) / Fold change /veh KRTAP10-2 (11738614_at) / RFU ARHGAP8 /// PRR5-ARHGAP8 (11727945_x_at) / Fold change /veh ARHGAP8 /// PRR5-ARHGAP8 (11727945_x_at) / RFU KRTAP5-7 /// NADSYN1 (11734609_at) / Fold change /veh KRTAP5-7 /// NADSYN1 (11734609_at) / RFU RASL12 (11751679_a_at) / Fold change /veh RASL12 (11751679_a_at) / RFU CDKN2B (11736163_a_at) / Fold change /veh CDKN2B (11736163_a_at) / RFU PRF1 (11729649_at) / Fold change /veh PRF1 (11729649_at) / RFU, ZNF638 /// ZNF638-IT1 / Fold change vs veh, ZNF638 /// ZNF638-IT1 / RFU, PANK3 / Fold change vs veh, PANK3 / RFU, SH3YL1 / Fold change vs veh, SH3YL1 / RFU, ZEB2 / Fold change vs veh, ZEB2 / RFU, NRIP1 / Fold change vs veh, NRIP1 / RFU, PTTG1IP / Fold change vs veh, PTTG1IP / RFU, CAPN2 / Fold change vs veh, CAPN2 / RFU, MED14 / Fold change vs veh, MED14 / RFU, SNORA58 / Fold change vs veh, SNORA58 / RFU, C1orf63 / Fold change vs veh, C1orf63 / RFU, LRRFIP1 / Fold change vs veh, LRRFIP1 / RFU, NDUFAF7 / Fold change vs veh, NDUFAF7 / RFU, SLC12A2 / Fold change vs veh, SLC12A2 / RFU, IBTK / Fold change vs veh, IBTK / RFU, ESF1 / Fold change vs veh, ESF1 / Fold change vs veh, TMEM50B / RFU, TAOK1 / Fold change vs veh, TAOK1 / RFU, ACBD3 / Fold change vs veh, ACBD3 / RFU, TMA16 / Fold change vs veh, TMA16 / RFU, RWDD3 / Fold change vs veh, RWDD3 / RFU, BCAT1 / Fold change vs veh, BCAT1 / RFU, EDEM3 / Fold change vs veh, EDEM3 / RFU, TMEM33 / Fold change vs veh, TMEM33 / RFU, WDR75 / Fold change vs veh, WDR75 / RFU, AHCTF1 / Fold change vs veh, AHCTF1 / RFU, TFRC / Fold change vs veh, TFRC / RFU, ZDHHC17 / Fold change vs veh, ZDHHC17 / RFU, NOM1 / Fold change vs veh, NOM1 / RFU, ARL8B / Fold change vs veh, ARL8B / RFU, ZBTB11 / Fold change vs veh, ZBTB11 / RFU, TAMM41 / Fold change vs veh, TAMM41 / RFU, KIAA1704 /// LOC100996395 / Fold change vs veh, KIAA1704 /// LOC100996395 / RFU, ING1 / Fold change vs veh, ING1 / RFU, TRMT61B / Fold change vs veh, TRMT61B / RFU, FUBP3 / Fold change vs veh, FUBP3 / RFU, TP53 / Fold change vs veh, TP53 / RFU, TNKS2 / Fold change vs veh, TNKS2 / RFU, ZFP14 / Fold change vs veh, ZFP14 / RFU, ACTR2 / Fold change vs veh, ACTR2 / RFU, PPP3R1 / Fold change vs veh, PPP3R1 / RFU, PIK3R1 / Fold change vs veh, PIK3R1 / RFU, HNRNPA1 / Fold change vs veh, HNRNPA1 / RFU, RNF170 / Fold change vs veh, RNF170 / RFU, ZNF28 / Fold change vs veh, ZNF28 / RFU, RNGTT / Fold change vs veh, RNGTT / RFU, OGT / Fold change vs veh, OGT / RFU, BRD1 / Fold change vs veh, BRD1 / RFU, MARS / Fold change vs veh, MARS / RFU, ZNF655 / Fold change vs veh, ZNF655 / RFU, FAHD1 / Fold change vs veh, FAHD1 / RFU, BDP1 / Fold change vs veh, BDP1 / RFU, LRRCC1 / Fold change vs veh, LRRCC1 / RFU, ARID1A / Fold change vs veh, ARID1A / RFU, ZNF146 / Fold change vs veh, ZNF146 / RFU, ZNF330 / Fold change vs veh, ZNF330 / RFU, GPN3 / Fold change vs veh, GPN3 / RFU, C9orf123 / Fold change vs veh, C9orf123 / RFU, N4BP2L2 / Fold change vs veh, N4BP2L2 / RFU, ARFIP1 / Fold change vs veh, ARFIP1 / RFU, FAM179B / Fold change vs veh, FAM179B / RFU, BCL10 / Fold change vs veh, BCL10 / RFU, UHRF1BP1L / Fold change vs veh, UHRF1BP1L / RFU, BET1 / Fold change vs veh, BET1 / RFU, CNOT2 / Fold change vs veh, CNOT2 / RFU, ZNF268 / Fold change vs veh, ZNF268 / Fold change vs veh, ZNF507 / RFU, DGCR2 / Fold change vs veh, DGCR2 / RFU, WDSUB1 / Fold change vs veh, WDSUB1 / Fold change vs veh, HSP90B1 /// MIR3652 / RFU, ADSS / Fold change vs veh, ADSS / RFU, GK / Fold change vs veh, GK / RFU, ZNF148 / Fold change vs veh, ZNF148 / RFU, TAF9 / Fold change vs veh, TAF9 / RFU, SLC1A5 / Fold change vs veh, SLC1A5 / RFU, SLMO2 / Fold change vs veh, SLMO2 / RFU, ABCC4 / Fold change vs veh, ABCC4 / RFU, LOC101060439 /// RAP1B / Fold change vs veh, LOC101060439 /// RAP1B / RFU, RFX7 / Fold change vs veh, RFX7 / RFU, GTPBP10 / Fold change vs veh, GTPBP10 / RFU, CNEP1R1 / Fold change vs veh, CNEP1R1 / RFU, BIVM-ERCC5 /// ERCC5 / Fold change vs veh, BIVM-ERCC5 /// ERCC5 / RFU, ILF3 / Fold change vs veh, ILF3 / RFU 11762660_at / Fold change /veh 11762660_at / RFU VCAN (11757783_s_at) / Fold change /veh VCAN (11757783_s_at) / RFU DDX43 (11728927_at) / Fold change /veh DDX43 (11728927_at) / RFU KRT8 (11758188_x_at) / Fold change /veh KRT8 (11758188_x_at) / RFU NKD1 (11759106_at) / Fold change /veh NKD1 (11759106_at) / RFU SRD5A1 (11742802_a_at) / Fold change /veh SRD5A1 (11742802_a_at) / RFU TPSAB1 /// TPSB2 (11721975_s_at) / Fold change /veh TPSAB1 /// TPSB2 (11721975_s_at) / RFU GSTM3 (11746129_a_at) / Fold change /veh GSTM3 (11746129_a_at) / RFU IL23R (11737362_x_at) / Fold change /veh IL23R (11737362_x_at) / RFU TMEM51 (11727254_a_at) / Fold change /veh TMEM51 (11727254_a_at) / RFU PIWIL2 (11732686_x_at) / Fold change /veh PIWIL2 (11732686_x_at) / RFU ORM1 (11744905_x_at) / Fold change /veh ORM1 (11744905_x_at) / RFU CCDC152 (11743942_at) / Fold change /veh CCDC152 (11743942_at) / RFU ECM1 (11717891_a_at) / Fold change /veh ECM1 (11717891_a_at) / RFU IL23R (11748794_a_at) / Fold change /veh IL23R (11748794_a_at) / RFU TNFAIP8L3 (11732012_x_at) / Fold change /veh TNFAIP8L3 (11732012_x_at) / RFU MBOAT4 (11741988_at) / Fold change /veh MBOAT4 (11741988_at) / RFU 11764193_at / Fold change /veh 11764193_at / RFU TMEM53 (11763286_at) / Fold change /veh TMEM53 (11763286_at) / RFU MAGEB2 (11727129_at) / Fold change /veh MAGEB2 (11727129_at) / RFU TMEM200A (11744735_a_at) / Fold change /veh TMEM200A (11744735_a_at) / RFU CCDC152 (11751479_a_at) / Fold change /veh CCDC152 (11751479_a_at) / RFU FAM211A (11726209_a_at) / Fold change /veh FAM211A (11726209_a_at) / RFU RGS16 (11746705_a_at) / Fold change /veh RGS16 (11746705_a_at) / RFU VCAN (11755009_s_at) / Fold change /veh VCAN (11755009_s_at) / RFU RHOB (11743442_s_at) / Fold change /veh RHOB (11743442_s_at) / RFU RGS16 (11720943_a_at) / Fold change /veh RGS16 (11720943_a_at) / RFU RGS16 (11720944_at) / Fold change /veh RGS16 (11720944_at) / RFU, VPS4B / Fold change vs veh, VPS4B / RFU, CREB1 / Fold change vs veh, CREB1 / RFU, DNAJC13 / Fold change vs veh, DNAJC13 / RFU, GNAQ / Fold change vs veh, GNAQ / RFU, CDK5R1 / Fold change vs veh, CDK5R1 / RFU, ZRANB3 / Fold change vs veh, ZRANB3 / RFU, CUL4A / Fold change vs veh, CUL4A / RFU, CCNY / Fold change vs veh, CCNY / RFU, UFL1 / Fold change vs veh, UFL1 / RFU, COG3 / Fold change vs veh, COG3 / RFU, DIAPH2 / Fold change vs veh, DIAPH2 / RFU, SKA2 / Fold change vs veh, SKA2 / RFU, AFF3 / Fold change vs veh, AFF3 / RFU, LMF1 / Fold change vs veh, LMF1 / RFU, IPO11 / Fold change vs veh, IPO11 / RFU, DFFB / Fold change vs veh, DFFB / RFU, FOXP1 / Fold change vs veh, FOXP1 / RFU, CARD8 / Fold change vs veh, CARD8 / RFU, STRN3 / Fold change vs veh, STRN3 / RFU, ADK / Fold change vs veh, ADK / RFU, RASSF2 / Fold change vs veh, RASSF2 / RFU, WIPF1 / Fold change vs veh, WIPF1 / RFU, LARP1B / Fold change vs veh, LARP1B / RFU, RASA1 / Fold change vs veh, RASA1 / RFU, RB1 / Fold change vs veh, RB1 / RFU, PPFIA1 / Fold change vs veh, PPFIA1 / RFU, MAT2A / Fold change vs veh, MAT2A / RFU, CCT5 / Fold change vs veh, CCT5 / RFU, WDR92 / Fold change vs veh, WDR92 / RFU, CUX1 / Fold change vs veh, CUX1 / RFU, TTC7A / Fold change vs veh, TTC7A / RFU, TMEM135 / Fold change vs veh, TMEM135 / RFU, DEPTOR / Fold change vs veh, DEPTOR / RFU, CPM / Fold change vs veh, CPM / RFU, DNAJB6 / Fold change vs veh, DNAJB6 / RFU, CACNA2D3 / Fold change vs veh, CACNA2D3 / RFU, DTX4 / Fold change vs veh, DTX4 / RFU, TFCP2 / Fold change vs veh, TFCP2 / RFU, GMCL1 /// GMCL1P1 / Fold change vs veh, GMCL1 /// GMCL1P1 / RFU, AEBP2 / Fold change vs veh, AEBP2 / RFU, SNHG1 /// SNORD22 /// SNORD25 /// SNORD26 /// SNORD27 /// SNORD28 /// SNORD29 /// SNORD31 / Fold change vs veh, SNHG1 /// SNORD22 /// SNORD25 /// SNORD26 /// SNORD27 /// SNORD28 /// SNORD29 /// SNORD31 / Fold change (Aza/veh), C12orf56 (ProbeSet 11735607_a_at) / Fold change (ACY-1035/veh), C12orf56 (ProbeSet 11735607_a_at) / Fold change (Aza/veh), FGFR1OP (ProbeSet 11751329_s_at) / Fold change (ACY-1035/veh), FGFR1OP (ProbeSet 11751329_s_at) / Fold change (Aza/veh), VPS36 (ProbeSet 11739960_a_at) / Fold change (ACY-1035/veh), VPS36 (ProbeSet 11739960_a_at) / RFU SYPL1 (11715823_x_at) / Fold change /veh SYPL1 (11715823_x_at) / RFU IGFBP7 (11715501_s_at) / Fold change /veh IGFBP7 (11715501_s_at) / RFU REEP3 (11722064_at) / Fold change /veh REEP3 (11722064_at) / RFU IGLL1 (11728026_x_at) / Fold change /veh IGLL1 (11728026_x_at): dose or concentration left out as unconfirmed
Details: ProbeSet 11716931_at; LIST B

Nc1ccc(-c2cccs2)cc1NC(=O)c1ccc2c(c1)cc(C1CC1)n2CCN1CCOCC1 [ACY-1035]
Fold change vs veh, DGCR2: 1.13
